The supplement of paper PMC5844555

Tests used:
Assay in all cases: 3' UTR reporter interaction score (median-centred robust z-score of log2 firefly/Renilla activity); higher = less repression of the 3' UTR reporter
Settings in all cases: HEK293T; 48 h
[1] = system: MYB
Method in brief: (§1)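 HEK293T cells (10,000/well, 96-well plates) were co-transfected using DharmaFECT Duo with 100 ng firefly luc2P reporter carrying the gene's 3' UTR, 20 ng Renilla pRL-TK control and 2.5 pmol miRNA mimic. Dual-luciferase activities were read 48 h post-transfection. The interaction score is the log-transformed firefly/Renilla ratio as a per-plate robust z-score (median, median absolute deviation), median-centred per miRNA and averaged over at least two independent screens; more negative indicates interaction.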

[2] = system: MYCN
Method in brief: as §1

[3] = system: NOTCH1
Method in brief: as §1

[4] = system: BRCA2
Method in brief: as §1

[5] = system: ZEB2
Method in brief: as §1

[6] = system: PHF6
Method in brief: as §1

[7] = system: FBXW7
Method in brief: as §1

[8] = system: EZH2
Method in brief: as §1

[9] = system: TP53
Method in brief: as §1

[10] = system: MYC
Method in brief: as §1

[11] = system: RB1
Method in brief: as §1

[12] = system: HRAS
Method in brief: as §1

[13] = system: PHOX2B
Method in brief: as §1

[14] = system: MYT1L
Method in brief: as §1

| Sequence | 3' UTR reporter interaction score [1] | 3' UTR reporter interaction score [2] | 3' UTR reporter interaction score [3] | 3' UTR reporter interaction score [4] | 3' UTR reporter interaction score [5] | 3' UTR reporter interaction score [6] | 3' UTR reporter interaction score [7] | 3' UTR reporter interaction score [8] | 3' UTR reporter interaction score [9] | 3' UTR reporter interaction score [10] | 3' UTR reporter interaction score [11] | 3' UTR reporter interaction score [12] | 3' UTR reporter interaction score [13] | 3' UTR reporter interaction score [14] |
| --- | --- | --- | --- | --- | --- | --- | --- | --- | --- | --- | --- | --- | --- | --- |
| GUUCAAAUCCAGAUCUAUAAC | -0.548 | -0.012 | -0.33 | 0.0735 | 0.383 | -0.553 | 1.03 | -0.256 | 0.149 | -0.205 | -0.538 | -0.14 | 1.14 | -0.972 |
| GUUCUCCCAACGUAAGCCCAGC | -4.37 | 0.962 | -0.479 | -0.8 | -0.194 | 0.685 | 1.08 | 0.22 | 0.732 | -0.299 | -0.277 | 0.00988 | 1.74 | 0.882 |
| GUUGGAGGAUGAAAGUACGGAGUGAU | 0.331 | 0.4 | -0.207 | -1.61 | 0.0694 | 0.571 | 1.07 | 0.25 | -1.24 | -0.154 | 0.55 | -0.155 | 1.82 | -0.433 |
| GUUGUGUCAGUUUAUCAAAC | 0.442 | 0.0505 | -0.822 | -0.269 | -0.154 | -1.91 | -0.0228 | 0.353 | 0.224 | 0.0323 | -1.51 | 0.822 | -0.364 | -0.86 |
| GUUUGCACGGGUGGGCCUUGUCU | -0.536 | 1.09 | 0.297 | 0.0623 | -1.23 | 0.29 | -0.619 | -0.233 | -0.225 | -0.328 | -0.0813 | -1.1 | 0.0301 | 2.21 |
| UAAACGUGGAUGUACUUGCUUU | -0.172 | -0.319 | 0.553 | 0.489 | 0.846 | -1.71 | 0.998 | 0.463 | 0.196 | -1.34 | 0.153 | -0.799 | -0.628 | -0.58 |
| UAAAGCUAGAUAACCGAAAGU | 0.558 | -1.46 | 1.01 | 1.05 | -0.694 | -0.609 | -0.801 | 0.346 | 0.374 | 0.416 | 0.722 | 0.407 | 0.965 | -1.97 |
| UAAAGUAAAUAUGCACCAAAA | -0.21 | -0.59 | 0.429 | -0.0915 | -0.265 | -0.814 | -0.197 | 0.367 | 0.703 | 0.043 | -0.322 | 0.372 | 1.69 | -0.0291 |
| UAAAGUGCUGACAGUGCAGAU | -0.631 | -0.735 | 0.373 | 0.319 | 0.619 | 0.442 | -0.356 | -0.906 | -0.0101 | 0.528 | -0.838 | 0.312 | 0.0581 | -2.37 |
| UAAAUCCCAUGGUGCCUUCUCCU | -0.131 | 1.04 | 0.16 | 0.0242 | -0.698 | 1.14 | -0.794 | 0.24 | 0.00864 | 0.0891 | 0.989 | -0.598 | 0.298 | -0.319 |
| UAACACUGUCUGGUAAAGAUGG | 0.229 | 0.21 | -0.447 | -0.392 | -7.02 | -1.93 | -0.104 | -0.173 | 0.617 | 0.0647 | 0.257 | 0.0521 | -0.774 | -4.79 |
| UAACACUGUCUGGUAACGAUGU | 0.219 | -0.465 | 0.173 | 0.575 | -5.66 | 1.8 | 0.00413 | -0.274 | -0.247 | -0.268 | 0.104 | 0.337 | -0.223 | -5.06 |
| UAACAGUCUACAGCCAUGGUCG | 0.1 | 0.783 | -0.392 | -0.186 | -0.631 | -0.351 | -0.629 | 1.32 | -1.07 | 0.473 | -1.41 | 0.64 | -0.125 | 1 |
| UAACAGUCUCCAGUCACGGCC | -1.89 | 0.167 | -0.389 | -0.504 | 1.77 | -0.767 | 0.973 | 0.108 | -0.811 | -0.0995 | -2.21 | -0.229 | -0.145 | 1.02 |
| UAAGGUGCAUCUAGUGCAGAUA | 0.537 | -0.0167 | 0.283 | -0.222 | -0.0823 | -0.951 | 0.264 | 0.286 | 0.495 | 0.199 | -0.171 | -0.481 | -0.0776 | 0.136 |
| UAAGGUGCAUCUAGUGCAGUUA | 0.34 | 0.0551 | 0.564 | -0.228 | -0.449 | -1.71 | -0.313 | 0.311 | 0.488 | 0.863 | -0.473 | -0.399 | 0.37 | -0.221 |
| UAAGUGCUUCCAUGUUUCAGUGG | -0.991 | 0.305 | 0.788 | 0.202 | 0.969 | 0.57 | 0.421 | -0.665 | -0.245 | -0.0462 | 0.571 | 0.114 | -0.0319 | -1.46 |

| Sequence | 3' UTR reporter interaction score [1] | 3' UTR reporter interaction score [2] | 3' UTR reporter interaction score [3] | 3' UTR reporter interaction score [4] | 3' UTR reporter interaction score [5] | 3' UTR reporter interaction score [6] | 3' UTR reporter interaction score [7] | 3' UTR reporter interaction score [8] | 3' UTR reporter interaction score [9] | 3' UTR reporter interaction score [10] | 3' UTR reporter interaction score [11] | 3' UTR reporter interaction score [12] | 3' UTR reporter interaction score [13] | 3' UTR reporter interaction score [14] |
| --- | --- | --- | --- | --- | --- | --- | --- | --- | --- | --- | --- | --- | --- | --- |
| UAAGUGCUUCCAUGUUUGAGUGU | -0.941 | 0.678 | 0.935 | -0.334 | 1.47 | -0.0188 | 0.795 | -0.327 | -0.124 | -0.0168 | 0.167 | 0.22 | 0.566 | -0.74 |
| UAAGUGCUUCCAUGUUUUAGUAG | -0.833 | 0.56 | 1.36 | -0.649 | 1.24 | 0.487 | 0.557 | -0.765 | 0.0485 | -0.0722 | 0.351 | 0.314 | -0.86 | -1.12 |
| UAAGUGCUUCCAUGUUUUGGUGA | -1.01 | 0.317 | 1.18 | -0.208 | 1.55 | 0.733 | 0.567 | -0.457 | -0.0784 | -0.0521 | 1.03 | -0.478 | 0.453 | -1.44 |
| UAAUACUGCCGGGUAAUGAUGG | -1.24 | -0.263 | -0.992 | -0.155 | -2.81 | 0.321 | -0.707 | 0.453 | 0.205 | 0.778 | 0.254 | -0.939 | -0.44 | 1.25 |
| UAAUACUGUCUGGUAAAACCGU | -2.29 | 0.575 | -1.39 | -0.165 | -6.85 | 0.422 | -1.04 | 0.716 | 0.0543 | 0.8 | 0.612 | 0.264 | -0.137 | 0.747 |
| UAAUCUCAGCUGGCAACUGUG | -0.952 | 0.412 | -0.148 | 1.06 | 0.502 | 0.579 | -0.0147 | -0.0854 | -0.775 | 0.197 | -0.947 | 0.474 | 0.207 | -0.796 |
| UAAUGCCCCUAAAAAUCCUUAU | -1.05 | -0.732 | -0.347 | 1.14 | -2.81 | 2.31 | 1.16 | 0.868 | -0.124 | 0.136 | -0.537 | -0.275 | 0.54 | 0.18 |
| UACAGUACUGUGAUAACUGAAG | 0.694 | -3.49 | -1.33 | 0.0293 | -0.268 | -0.261 | -3.92 | -3.4 | -0.59 | 0.128 | 0.982 | 0.843 | 0.00398 | 0.686 |
| UACAGUAGUCUGCACAUUGGUU | -0.118 | 0.292 | -0.605 | 0.551 | 1.83 | -0.669 | 0.408 | -0.827 | -1.16 | 0.385 | 2 | -0.926 | -0.571 | 3.26 |
| UACAGUAUAGAUGAUGUACUAG | 1.2 | -0.388 | 0.141 | -0.483 | 0.857 | 0.845 | -1.17 | 0.0925 | 0.564 | -0.27 | 0.00103 | -0.991 | 1.45 | 0.926 |
| UACCCAUUGCAUAUCGGAGUUG | -1.15 | -0.434 | 0.783 | 1.65 | -2.65 | -2.43 | 1.03 | -0.072 | 0.729 | 1.45 | 0.632 | 0.189 | -0.552 | -2.74 |
| UACCCUGUAGAACCGAAUUUGU | 0.245 | -0.116 | -1.66 | 0.189 | -1.8 | 0.333 | -0.174 | 1.07 | -0.546 | 0.546 | -0.148 | 0.849 | -0.86 | -2.07 |
| UACCCUGUAGAUCCGAAUUUGUG | 0.0301 | -0.296 | -2.62 | 0.0748 | -1.18 | -0.356 | -0.445 | 1.17 | -0.88 | 0.449 | 0.397 | 1.04 | -1.36 | -2.08 |
| UACUGCAUCAGGAACUGAUUGGAU | -0.822 | 0.685 | 0.0506 | -0.471 | -0.414 | -2.18 | 0.0205 | -1.49 | -0.963 | 0.358 | 1.24 | 0.0273 | 0.00207 | 1.06 |
| UAGAUAAAAUAUUGGUACCUG | -0.19 | 0.037 | -0.186 | 0.0137 | -0.296 | -0.242 | 0.354 | 0.412 | 0.578 | 0.271 | -0.00826 | 0.836 | -1.45 | -0.105 |
| UAGCACCAUCUGAAAUCGGUU | 0.702 | -3.08 | 0.229 | 0.502 | -0.458 | -0.0911 | -3.02 | 0.717 | -0.0665 | 0.338 | -0.626 | 0.469 | -0.351 | -0.146 |
| UAGCACCAUUUGAAAUCAGUGUU | 0.253 | -3.52 | 0.166 | 0.947 | 0.0122 | 0.425 | -3.34 | 0.729 | -0.394 | 0.295 | -0.25 | -0.0949 | -1.1 | 0.287 |
